Reference: patent publication US20220227737A1, “NOVEL OXALYL PIPERAZINES ACTIVE AGAINST THE HEPATITIS B VIRUS (HBV)” (AiCuris GmbH & Co. KG, priority 2019, published 2022)

Target: T1, C-terminal truncated core protein (HBV core dimer, BODIPY-FL labelled) (UniProt P03146)
T1 construct: fused on or other part: One added cysteine at position 150, labelled with BODIPY-FL maleimide; The C-terminal arginine-rich domain is absent
Test: Biochemical capsid assembly assay (fluorescence quenching)
Protocol: Biochemical Capsid Assembly Assay
The screening for assembly effector activity was done based on a fluorescence quenching assay published by Zlotnick et al. (2007). The C-terminal truncated core protein containing 149 amino acids of the N-terminal assembly domain fused to a unique cysteine residue at position 150 and was expressed in E. coli using the pET expression system (Merck Chemicals, Darmstadt). Purification of core dimer protein was performed using a sequence of size exclusion chromatography steps. In brief, the cell pellet from 1 L BL21 (DE3) Rosetta2 culture expressing the coding sequence of core protein cloned NdeI/XhoI into expression plasmid pET21b was treated for 1 h on ice with a native lysis buffer (Qproteome Bacterial Protein Prep Kit; Qiagen, Hilden). After a centrifugation step the supernatant was precipitated during 2 h stirring on ice with 0.23 g/ml of solid ammonium sulfate. Following further centrifugation the resulting pellet was resolved in buffer A (100 mM Tris, pH 7.5; 100 mM NaCl; 2 mM DTT) and was subsequently loaded onto a buffer A equilibrated CaptoCore 700 column (GE HealthCare, Frankfurt). The column flow through containing the assembled HBV capsid was dialyzed against buffer N (50 mM NaHCO3 pH 9.6; 5 mM DTT) before urea was added to a final concentration of 3M to dissociate the capsid into core dimers for 1.5 h on ice. The protein solution was then loaded onto a 1 L Sephacryl 5300 column. After elution with buffer N core dimer containing fractions were identified by SDS-PAGE and subsequently pooled and dialyzed against 50 mM HEPES pH 7.5; 5 mM DTT. To improve the assembly capacity of the purified core dimers a second round of assembly and disassembly starting with the addition of 5 M NaCl and including the size exclusion chromatography steps described above was performed. From the last chromatography step core dimer containing fractions were pooled and stored in aliquots at concentrations between 1.5 to 2.0 mg/ml at −80° C.
Immediately before labelling the core protein was reduced by adding freshly prepared DTT in a final concentration of 20 mM. After 40 min incubation on ice storage buffer and DTT was removed using a Sephadex G-25 column (GE HealthCare, Frankfurt) and 50 mM HEPES, pH 7.5. For labelling 1.6 mg/ml core protein was incubated at 4° C. and darkness overnight with BODIPY-FL maleimide (Invitrogen, Karlsruhe) in a final concentration of 1 mM. After labelling the free dye was removed by an additional desalting step using a Sephadex G-25 column. Labelled core dimers were stored in aliquots at 4° C. In the dimeric state the fluorescence signal of the labelled core protein is high and is quenched during the assembly of the core dimers to high molecular capsid structures. The screening assay was performed in black 384 well microtiter plates in a total assay volume of 10 μl using 50 mM HEPES pH 7.5 and 1.0 to 2.0 μM labelled core protein. Each screening compound was added in 8 different concentrations using a 0.5 log-unit serial dilution starting at a final concentration of 100 μM, 31.6 μM or 10 μM, In any case the DMSO concentration over the entire microtiter plate was 0.5%. The assembly reaction was started by the injection of NaCl to a final concentration of […] which induces the assembly process to approximately 25% of the maximal quenched signal. […] after starting the reaction the fluorescence signal was measured using a Clariostar plate reader (BMG Labtech, Ortenberg) with an excitation of 477 nm and an emission of 525 nm. As 100% and 0% assembly control HEPES buffer containing 2.5 M and 0 M NaCl was used. Experiments were performed thrice in triplicates. EC50 values were calculated by non-linear regression analysis using the Graph Pad Prism 6 software (GraphPad Software, La Jolla, USA).

T1 sequence (P03146 whole entry, the tested form may be a part): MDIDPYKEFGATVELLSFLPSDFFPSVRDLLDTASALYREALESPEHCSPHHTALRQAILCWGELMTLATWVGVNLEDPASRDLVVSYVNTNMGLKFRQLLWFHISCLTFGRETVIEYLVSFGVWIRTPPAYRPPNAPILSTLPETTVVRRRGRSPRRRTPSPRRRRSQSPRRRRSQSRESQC

SMILES	IC50
O=C(NCC1(O)CC1)C(=O)N1CCN(C(=O)c2cc3ccccc3[nH]2)CC1 [Example 18, 2-(4-(1H-indole-2-carbonyl)piperazin-1-yl)-N-((1-hydroxycyclopropyl)methyl)-2-oxoacetamide]	< 100 µM
C[C@H]1CN(C(=O)C(=O)NC(C)(C)C)CCN1C(=O)c1cc2ccccc2[nH]1 [Example 49, (S)-2-(4-(1H-indole-2-carbonyl)-3-methylpiperazin-1-yl)-N-(tert-butyl)-2-oxoacetamide]	< 100 µM
CC(C)(C)NC(=O)C(=O)N1CCN(C(=O)c2cc3cc(F)c(Cl)cc3[nH]2)CC1 [Example 45, N-(tert-butyl)-2-(4-(6-chloro-5-fluoro-1H-indole-2-carbonyl)piperazin-1-yl)-2-oxoacetamide]	5 to 10 µM
C[C@@H]1CN(C(=O)C(=O)NC(C)(C)C)[C@@H](C)CN1C(=O)c1cc2ccccc2[nH]1 [Example 48, N-tert-butyl-2-[(2S,5R)-4-(1H-indole-2-carbonyl)-2,5-dimethylpiperazin-1-yl]-2-oxoacetamide]	< 5 µM
C[C@H](NC(=O)C(=O)N1CCN(C(=O)c2cc3ccccc3[nH]2)CC1)C(F)(F)F [Example 37, 2-[4-(1H-indole-2-carbonyl)piperazin-1-yl]-2-oxo-N-[(2S)-1,1,1-trifluoropropan-2-yl]acetamide]	< 5 µM
CC1(NC(=O)C(=O)N2CCN(C(=O)c3cc4ccccc4[nH]3)CC2)CCCCCC1 [Example 66, 2-[4-(1H-indole-2-carbonyl)piperazin-1-yl]-N-(1-methylcycloheptyl)-2-oxoacetamide]	5 to 10 µM
COCC1(NC(=O)C(=O)N2CCN(C(=O)c3cc4ccccc4[nH]3)CC2)CCC1 [Example 41, 2-(4-(1H-indole-2-carbonyl)piperazin-1-yl)-N-(1-(methoxymethyl)cyclobutyl)-2-oxoacetamide]	< 5 µM
CC(C)(CC(F)(F)F)NC(=O)C(=O)N1CCN(C(=O)c2cc3ccccc3[nH]2)CC1 [Example 69, 2-[4-(1H-indole-2-carbonyl)piperazin-1-yl]-2-oxo-N-(4,4,4-trifluoro-2-methylbutan-2-yl)acetamide]	< 5 µM
CC(C)(C)NC(=O)C(=O)N1CCN(C(=O)c2cc3c(F)cc(F)cc3[nH]2)CC1 [Example 43, N-(tert-butyl)-2-(4-(4,6-difluoro-1H-indole-2-carbonyl)piperazin-1-yl)-2-oxoacetamide]	< 5 µM
CC(C)(C)NC(=O)C(=O)N1CCN(C(=O)c2cc3cc(F)c(F)cc3[nH]2)CC1 [Example 42, N-tert-butyl-2-[4-(5,6-difluoro-1H-indole-2-carbonyl)piperazin-1-yl]-2-oxoacetamide]	5 to 10 µM
CNC(=O)C1(CNC(=O)C(=O)N2CCN(C(=O)c3cc4ccccc4[nH]3)CC2)CCC1 [Example 22, 1-((2-(4-(1H-indole-2-carbonyl)piperazin-1-yl)-2-oxoacetamido)methyl)-N-methylcyclobutane-1-carboxamide]	< 100 µM
NC(=O)C1(CNC(=O)C(=O)N2CCN(C(=O)c3cc4ccccc4[nH]3)CC2)CCC1 [Example 20, 1-((2-(4-(1H-indole-2-carbonyl)piperazin-1-yl)-2-oxoacetamido)methyl)cyclobutane-1-carboxamide]	< 100 µM
C[C@@H](NC(=O)C(=O)N1CCN(C(=O)c2cc3ccccc3[nH]2)CC1)C(F)(F)F [Example 38, (R)-2-(4-(1H-indole-2-carbonyl)piperazin-1-yl)-2-oxo-N-(1,1,1-trifluoropropan-2-yl)acetamide]	< 5 µM
C[C@H](O)CNC(=O)C(=O)N1CCN(C(=O)c2cc3ccccc3[nH]2)CC1 [Example 36, (S)-2-(4-(1H-indole-2-carbonyl)piperazin-1-yl)-N-(2-hydroxypropyl)-2-oxoacetamide]	< 5 µM
Cc1cccc2[nH]c(C(=O)N3CCN(C(=O)C(=O)NC(C)(C)C)CC3)cc12 [Example 44, N-(tert-butyl)-2-(4-(4-methyl-1H-indole-2-carbonyl)piperazin-1-yl)-2-oxoacetamide]	< 5 µM
CCCCNC(=O)C(=O)N1CCN(C(=O)c2cc3cc(F)ccc3[nH]2)CC1 [Example 27, N-butyl-2-(4-(5-fluoro-1H-indole-2-carbonyl)piperazin-1-yl)-2-oxoacetamide]	< 5 µM
C[C@@H]1CN(C(=O)C(=O)NC(C)(C)C)CCN1C(=O)c1cc2ccccc2[nH]1 [Example 50, (R)-2-(4-(1H-indole-2-carbonyl)-3-methylpiperazin-1-yl)-N-(tert-butyl)-2-oxoacetamide]	< 5 µM
C#CCNC(=O)C(=O)N1CCN(C(=O)c2cc3ccccc3[nH]2)CC1 [Example 15, 2-(4-(1H-indole-2-carbonyl)piperazin-1-yl)-2-oxo-N-(prop-2-yn-1-yl)acetamide]	< 5 µM
Cc1c(F)ccc2[nH]c(C(=O)N3CCN(C(=O)C(=O)NC(C)(C)C)CC3)cc12 [Example 46, N-(tert-butyl)-2-(4-(5-fluoro-4-methyl-1H-indole-2-carbonyl)piperazin-1-yl)-2-oxoacetamide]	5 to 10 µM
O=C(NC1CCCCCC1)C(=O)N1CCN(C(=O)c2cc3ccccc3[nH]2)CC1 [Example 70, N-cycloheptyl-2-[4-(1H-indole-2-carbonyl)piperazin-1-yl]-2-oxoacetamide]	5 to 10 µM
NC(=O)C1(CNC(=O)C(=O)N2CCN(C(=O)c3cc4ccccc4[nH]3)CC2)CC(F)(F)C1 [Example 21, 1-((2-(4-(1H-indole-2-carbonyl)piperazin-1-yl)-2-oxoacetamido)methyl)-3,3-difluorocyclobutane-1-carboxamide]	5 to 10 µM
O=C1CCC(CNC(=O)C(=O)N2CCN(C(=O)c3cc4ccccc4[nH]3)CC2)N1 (stereo not shown) [Example 14, 2-[4-(1H-indole-2-carbonyl)piperazin-1-yl]-2-oxo-N-[(5-oxopyrrolidin-2-yl)methyl]acetamide]	< 100 µM
O=C1CC2(CC(CNC(=O)C(=O)N3CCN(C(=O)c4cc5ccccc5[nH]4)CC3)C2)N1 (stereo not shown) [Example 19, 2-(4-(1H-indole-2-carbonyl)piperazin-1-yl)-2-oxo-N-((2-oxo-1-azaspiro[3.3]heptan-6-yl)methyl)acetamide]	< 100 µM
O=C(N[C@H]1C[C@H](O)C1)C(=O)N1CCN(C(=O)c2cc3ccccc3[nH]2)CC1 [Example 17, 2-(4-(1H-indole-2-carbonyl)piperazin-1-yl)-N-((1 r,3 r)-3-hydroxycyclobutyl)-2-oxoacetamide]	5 to 10 µM
O=C(N[C@H]1CC[C@@H](O)CC1)C(=O)N1CCN(C(=O)c2cc3ccccc3[nH]2)CC1 [Example 16, 2-(4-(1H-indole-2-carbonyl)piperazin-1-yl)-N-((1s,4s)-4-hydroxycyclohexyl)-2-oxoacetamide]	5 to 10 µM
CC(C)(CCCO)NC(=O)C(=O)N1CCN(C(=O)c2cc3ccccc3[nH]2)CC1 [Example 68, N-(5-hydroxy-2-methylpentan-2-yl)-2-[4-(1H-indole-2-carbonyl)piperazin-1-yl]-2-oxoacetamide]	< 5 µM
CC1(NC(=O)C(=O)N2CCN(C(=O)c3cc4ccccc4[nH]3)CC2)CCOCC1 [Example 39, 2-(4-(1H-indole-2-carbonyl)piperazin-1-yl)-N-(4-methyltetrahydro-2H-pyran-4-yl)-2-oxoacetamide]	< 5 µM
CCC(C)(C)NC(=O)C(=O)N1CCN(C(=O)c2cc3ccccc3[nH]2)CC1 [Example 67, 2-[4-(1H-indole-2-carbonyl)piperazin-1-yl]-N-(2-methylbutan-2-yl)-2-oxoacetamide]	< 5 µM
